# According to ChEMBL document CHEMBL1201862, “PubChem BioAssay data set” (2004):
# The source made the active and inactive calls.
# Legend:
# [1] = target: T1, Mannose-6-phosphate isomerase (Homo sapiens, UniProt P34949); experiment: human PMI inhibitors, high substrate, primary screen, biochemical, fluorescence intensity, high mannose 6-phosphate (AID 1220)
# T1 sequence (P34949 whole entry): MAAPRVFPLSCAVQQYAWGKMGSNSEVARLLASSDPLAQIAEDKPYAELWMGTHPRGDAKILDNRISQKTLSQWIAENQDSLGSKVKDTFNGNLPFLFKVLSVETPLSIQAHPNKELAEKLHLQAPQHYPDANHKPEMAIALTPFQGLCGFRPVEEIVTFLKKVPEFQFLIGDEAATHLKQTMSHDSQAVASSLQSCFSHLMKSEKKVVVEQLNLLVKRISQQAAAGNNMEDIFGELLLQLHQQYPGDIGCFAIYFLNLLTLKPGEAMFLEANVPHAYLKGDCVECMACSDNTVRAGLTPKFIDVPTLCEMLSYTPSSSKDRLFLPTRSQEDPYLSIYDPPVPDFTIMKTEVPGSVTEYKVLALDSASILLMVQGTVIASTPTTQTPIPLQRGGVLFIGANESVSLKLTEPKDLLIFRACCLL
# [2] = target: T2, Heat shock factor protein 1 (Mus musculus, UniProt P38532); experiment: HSF1 potentiators in luciferase reporter cells, confirmation, cell-based, NIH3T3, luminescence, dose retest (AID 435004); type: functional;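 note: stress induced by proteasome inhibitor MG132 added 30 min after compound; luciferase reporter driven by HSF1 response element in NIH3T3 cells; actives raise luminescence as potentiators of the MG132 stress response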
# T2 sequence (P38532 whole entry): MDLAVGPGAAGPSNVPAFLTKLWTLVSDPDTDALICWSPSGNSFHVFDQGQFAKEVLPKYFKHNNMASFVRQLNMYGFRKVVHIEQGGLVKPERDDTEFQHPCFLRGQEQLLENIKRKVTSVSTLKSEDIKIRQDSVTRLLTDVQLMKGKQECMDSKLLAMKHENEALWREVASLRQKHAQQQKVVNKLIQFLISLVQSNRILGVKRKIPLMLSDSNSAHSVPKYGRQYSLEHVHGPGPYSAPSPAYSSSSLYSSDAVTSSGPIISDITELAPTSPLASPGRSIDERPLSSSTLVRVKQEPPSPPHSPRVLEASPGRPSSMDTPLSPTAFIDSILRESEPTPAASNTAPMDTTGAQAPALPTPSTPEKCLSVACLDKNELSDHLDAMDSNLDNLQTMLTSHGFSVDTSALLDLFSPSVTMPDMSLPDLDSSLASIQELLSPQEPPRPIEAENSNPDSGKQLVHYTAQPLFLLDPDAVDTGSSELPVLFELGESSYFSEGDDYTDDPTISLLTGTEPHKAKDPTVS
# [3] = target: T3, Replicative DNA helicase DnaB (Mycobacterium tuberculosis, UniProt P9WMR3); experiment: DnaB intein splicing inhibitors, dose response, biochemical, cell-free fluorescence (AID 449749); type: functional
# T3 sequence (P9WMR3 whole entry): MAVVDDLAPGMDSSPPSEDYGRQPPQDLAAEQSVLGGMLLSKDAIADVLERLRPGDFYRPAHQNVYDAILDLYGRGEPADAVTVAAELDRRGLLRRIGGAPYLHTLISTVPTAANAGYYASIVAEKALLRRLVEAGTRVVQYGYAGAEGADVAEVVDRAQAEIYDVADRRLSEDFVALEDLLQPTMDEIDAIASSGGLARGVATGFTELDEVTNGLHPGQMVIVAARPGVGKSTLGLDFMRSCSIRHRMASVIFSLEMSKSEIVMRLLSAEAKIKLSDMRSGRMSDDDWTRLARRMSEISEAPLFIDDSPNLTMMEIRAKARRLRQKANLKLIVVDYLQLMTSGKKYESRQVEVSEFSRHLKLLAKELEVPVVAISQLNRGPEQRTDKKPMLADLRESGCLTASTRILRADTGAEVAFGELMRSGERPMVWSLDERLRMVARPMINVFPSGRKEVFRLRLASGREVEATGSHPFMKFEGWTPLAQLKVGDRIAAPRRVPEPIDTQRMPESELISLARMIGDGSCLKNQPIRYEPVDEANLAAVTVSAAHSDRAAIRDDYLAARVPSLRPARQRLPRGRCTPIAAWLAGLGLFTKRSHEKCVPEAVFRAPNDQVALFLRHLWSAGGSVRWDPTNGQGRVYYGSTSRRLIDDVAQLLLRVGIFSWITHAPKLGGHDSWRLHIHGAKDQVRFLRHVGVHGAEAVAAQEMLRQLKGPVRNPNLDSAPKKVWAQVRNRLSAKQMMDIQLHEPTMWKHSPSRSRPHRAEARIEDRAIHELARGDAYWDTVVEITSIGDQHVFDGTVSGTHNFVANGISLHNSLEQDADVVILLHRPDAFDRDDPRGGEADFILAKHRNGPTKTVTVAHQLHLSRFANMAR
# Vero = Vero cell cytotoxicity, cytotoxicity control for flavivirus capping enzyme inhibitors (AID 588742); type: functional; conditions: Chlorocebus sabaeus
# Protein RecA = target: T4, Protein RecA (Mycobacterium tuberculosis, UniProt P9WHJ3); experiment: Fluorescence Cell-Free Homogeneous Dose Retest to Identify Inhibitors of RecA-Intein Splicing Activity. [Related pubchem assays (depositor defined):AID2097, AID2223, AID489010, AID492950]; type: functional
# T4 sequence (P9WHJ3 whole entry): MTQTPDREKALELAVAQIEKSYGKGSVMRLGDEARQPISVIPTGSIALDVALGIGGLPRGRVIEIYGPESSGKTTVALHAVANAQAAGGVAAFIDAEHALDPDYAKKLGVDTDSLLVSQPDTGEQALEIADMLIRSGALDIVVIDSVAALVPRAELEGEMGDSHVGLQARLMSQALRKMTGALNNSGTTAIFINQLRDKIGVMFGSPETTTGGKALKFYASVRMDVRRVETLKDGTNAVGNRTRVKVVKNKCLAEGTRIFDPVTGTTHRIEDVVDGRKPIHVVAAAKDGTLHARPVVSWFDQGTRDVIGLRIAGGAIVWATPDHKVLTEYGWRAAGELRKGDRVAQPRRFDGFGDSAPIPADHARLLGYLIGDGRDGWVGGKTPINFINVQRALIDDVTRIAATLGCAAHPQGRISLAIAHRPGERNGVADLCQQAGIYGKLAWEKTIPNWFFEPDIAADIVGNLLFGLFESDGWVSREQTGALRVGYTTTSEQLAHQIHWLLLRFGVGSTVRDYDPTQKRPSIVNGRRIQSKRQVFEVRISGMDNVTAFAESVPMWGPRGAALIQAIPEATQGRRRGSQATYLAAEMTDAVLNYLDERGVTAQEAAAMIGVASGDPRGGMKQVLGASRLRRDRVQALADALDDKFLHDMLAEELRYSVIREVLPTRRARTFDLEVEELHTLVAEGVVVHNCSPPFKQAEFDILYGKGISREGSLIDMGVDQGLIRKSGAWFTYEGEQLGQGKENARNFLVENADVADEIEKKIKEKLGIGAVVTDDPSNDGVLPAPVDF
# Genome polyprotein = Genome polyprotein (dengue virus type 2, UniProt P29990); experiment: Dengue-2 NS5 methyltransferase inhibitors, primary screen, biochemical, confirmation dose response (AID 588689); type: functional
# Sequence of Genome polyprotein (P29990 2492-3391 limits assumed): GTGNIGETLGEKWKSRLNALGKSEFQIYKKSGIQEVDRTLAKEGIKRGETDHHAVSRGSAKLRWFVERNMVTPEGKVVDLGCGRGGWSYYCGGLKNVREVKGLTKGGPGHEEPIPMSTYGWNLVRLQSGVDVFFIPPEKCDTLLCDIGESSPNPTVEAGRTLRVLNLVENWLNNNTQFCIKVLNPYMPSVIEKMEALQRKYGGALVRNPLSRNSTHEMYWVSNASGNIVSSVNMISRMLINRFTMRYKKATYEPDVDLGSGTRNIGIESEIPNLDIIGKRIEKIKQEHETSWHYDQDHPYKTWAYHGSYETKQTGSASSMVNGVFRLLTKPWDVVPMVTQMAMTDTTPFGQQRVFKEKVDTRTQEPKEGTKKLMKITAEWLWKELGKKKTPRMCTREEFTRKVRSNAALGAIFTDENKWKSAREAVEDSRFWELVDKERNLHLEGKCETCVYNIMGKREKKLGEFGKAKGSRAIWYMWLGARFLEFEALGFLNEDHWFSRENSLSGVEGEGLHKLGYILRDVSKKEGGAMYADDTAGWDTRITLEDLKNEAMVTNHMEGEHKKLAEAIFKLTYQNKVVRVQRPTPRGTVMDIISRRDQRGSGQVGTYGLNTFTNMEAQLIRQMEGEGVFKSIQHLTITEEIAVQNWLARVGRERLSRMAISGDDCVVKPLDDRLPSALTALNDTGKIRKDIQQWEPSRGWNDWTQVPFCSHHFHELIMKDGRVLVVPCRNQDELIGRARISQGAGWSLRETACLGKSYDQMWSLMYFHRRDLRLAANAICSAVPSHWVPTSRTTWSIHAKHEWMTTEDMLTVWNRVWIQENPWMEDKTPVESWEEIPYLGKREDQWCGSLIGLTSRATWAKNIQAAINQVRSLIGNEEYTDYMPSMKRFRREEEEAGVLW
# [4] = target: T5, Rac GTPase-activating protein 1 (Homo sapiens, UniProt Q9H0H5); experiment: MgcRacGAP GTPase-activating activity inhibitors, confirmation, biochemical, ADP Hunter fluorescence, primary and confirmatory (AID 624330); type: functional
# T5 sequence (Q9H0H5 whole entry): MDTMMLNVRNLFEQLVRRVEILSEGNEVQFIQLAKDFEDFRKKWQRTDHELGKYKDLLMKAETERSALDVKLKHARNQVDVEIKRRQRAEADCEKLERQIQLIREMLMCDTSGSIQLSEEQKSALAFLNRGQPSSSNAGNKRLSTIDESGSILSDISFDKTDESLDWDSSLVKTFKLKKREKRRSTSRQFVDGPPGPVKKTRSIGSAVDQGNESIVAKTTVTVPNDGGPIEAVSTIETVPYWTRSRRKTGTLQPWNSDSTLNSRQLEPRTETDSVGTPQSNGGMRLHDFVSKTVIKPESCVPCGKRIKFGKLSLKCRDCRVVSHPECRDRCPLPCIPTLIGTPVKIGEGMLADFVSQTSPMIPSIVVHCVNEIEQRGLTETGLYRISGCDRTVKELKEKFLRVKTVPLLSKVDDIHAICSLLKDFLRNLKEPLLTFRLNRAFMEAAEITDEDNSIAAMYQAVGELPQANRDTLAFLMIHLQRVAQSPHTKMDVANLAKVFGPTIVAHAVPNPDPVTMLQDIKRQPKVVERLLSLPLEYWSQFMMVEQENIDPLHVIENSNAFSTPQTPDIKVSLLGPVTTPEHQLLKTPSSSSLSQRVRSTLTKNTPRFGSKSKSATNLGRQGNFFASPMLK
# [5] = inhibitors of intracellular T. cruzi replication, confirmation, NIH3T3 host cells, beta-gal luminescence (AID 2044); type: functional, cell-based;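 note: intracellular parasites grown in NIH/3T3 mouse fibroblasts as host cells; luminescent beta-galactosidase reporter signal from transgenic T. cruzi replicating inside host cells; inhibitors lower the luminescence signal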
# [6] = cytotoxicity toward NIH3T3 fibroblasts, dose response, counter-screen, cell-based, ATP luminescence, mouse fibroblasts (AID 2010); type: functional;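 note: cells exposed to compound for about 90 hours before reading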
# [7] = target: T6, Tyrosine-protein phosphatase non-receptor type 7 (Homo sapiens, UniProt P35236); experiment: inhibitors of human HePTP phosphatase, […], biochemical, absorbance, leukemia target (AID 521); type: functional
# T6 sequence (P35236 whole entry): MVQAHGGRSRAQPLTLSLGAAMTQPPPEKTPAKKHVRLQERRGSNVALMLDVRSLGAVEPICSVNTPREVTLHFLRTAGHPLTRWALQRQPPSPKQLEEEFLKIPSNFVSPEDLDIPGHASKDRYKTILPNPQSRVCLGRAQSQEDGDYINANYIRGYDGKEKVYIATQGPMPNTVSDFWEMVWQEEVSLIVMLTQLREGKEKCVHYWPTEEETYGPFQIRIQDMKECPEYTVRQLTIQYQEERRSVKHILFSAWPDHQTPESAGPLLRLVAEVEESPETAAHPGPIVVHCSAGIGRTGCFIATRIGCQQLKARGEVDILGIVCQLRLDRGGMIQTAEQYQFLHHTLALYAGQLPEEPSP
# [8] = target: Voltage-gated inwardly rectifying potassium channel KCNH2 (Homo sapiens, UniProt Q12809); experiment: hERG protection from proarrhythmic block, potency, dose response, cell-based, thallium flux (AID 2121); type: ADME
# Sequence of Voltage-gated inwardly rectifying potassium channel KCNH2 (Q12809 whole entry, the tested form may be a part): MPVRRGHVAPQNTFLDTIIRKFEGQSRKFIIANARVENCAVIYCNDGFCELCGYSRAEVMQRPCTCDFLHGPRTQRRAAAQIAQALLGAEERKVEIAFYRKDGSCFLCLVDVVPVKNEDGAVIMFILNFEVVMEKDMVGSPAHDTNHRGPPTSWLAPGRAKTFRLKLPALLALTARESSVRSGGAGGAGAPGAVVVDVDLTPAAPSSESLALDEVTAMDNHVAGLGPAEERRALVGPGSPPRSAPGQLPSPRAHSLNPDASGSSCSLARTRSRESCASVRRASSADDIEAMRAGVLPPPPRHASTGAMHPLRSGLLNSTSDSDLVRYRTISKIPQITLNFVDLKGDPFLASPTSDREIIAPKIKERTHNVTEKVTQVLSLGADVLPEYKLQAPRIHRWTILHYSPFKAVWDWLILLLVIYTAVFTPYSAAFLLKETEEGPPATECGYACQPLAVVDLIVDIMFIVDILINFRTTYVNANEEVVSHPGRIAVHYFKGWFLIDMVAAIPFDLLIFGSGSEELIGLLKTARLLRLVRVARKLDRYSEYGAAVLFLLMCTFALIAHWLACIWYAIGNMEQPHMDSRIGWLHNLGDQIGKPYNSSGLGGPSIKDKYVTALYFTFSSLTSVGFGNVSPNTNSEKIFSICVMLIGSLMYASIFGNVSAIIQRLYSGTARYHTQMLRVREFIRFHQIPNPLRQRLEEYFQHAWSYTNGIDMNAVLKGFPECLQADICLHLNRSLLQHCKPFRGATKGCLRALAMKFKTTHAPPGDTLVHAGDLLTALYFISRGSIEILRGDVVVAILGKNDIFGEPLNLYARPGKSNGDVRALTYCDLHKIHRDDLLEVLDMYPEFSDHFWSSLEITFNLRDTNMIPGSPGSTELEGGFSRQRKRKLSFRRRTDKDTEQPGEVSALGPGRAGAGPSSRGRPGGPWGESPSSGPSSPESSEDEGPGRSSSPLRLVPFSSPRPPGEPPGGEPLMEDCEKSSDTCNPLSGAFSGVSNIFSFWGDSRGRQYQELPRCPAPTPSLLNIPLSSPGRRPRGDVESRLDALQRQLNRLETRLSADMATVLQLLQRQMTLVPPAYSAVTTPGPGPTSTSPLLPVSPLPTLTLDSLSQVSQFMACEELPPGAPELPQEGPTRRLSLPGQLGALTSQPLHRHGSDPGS
# Fatty acid synthase = Fatty acid synthase (Homo sapiens, UniProt P49327); experiment: FAS thioesterase domain inhibitors, dose response, biochemical, kinetic fluorescence intensity (AID 624326); type: functional;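 note: rate of fluorescence rise from hydrolysis of a fluorogenic O-methyl fluorescein ester substrate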
# Sequence of Fatty acid synthase (P49327 whole entry, the tested form may be a part): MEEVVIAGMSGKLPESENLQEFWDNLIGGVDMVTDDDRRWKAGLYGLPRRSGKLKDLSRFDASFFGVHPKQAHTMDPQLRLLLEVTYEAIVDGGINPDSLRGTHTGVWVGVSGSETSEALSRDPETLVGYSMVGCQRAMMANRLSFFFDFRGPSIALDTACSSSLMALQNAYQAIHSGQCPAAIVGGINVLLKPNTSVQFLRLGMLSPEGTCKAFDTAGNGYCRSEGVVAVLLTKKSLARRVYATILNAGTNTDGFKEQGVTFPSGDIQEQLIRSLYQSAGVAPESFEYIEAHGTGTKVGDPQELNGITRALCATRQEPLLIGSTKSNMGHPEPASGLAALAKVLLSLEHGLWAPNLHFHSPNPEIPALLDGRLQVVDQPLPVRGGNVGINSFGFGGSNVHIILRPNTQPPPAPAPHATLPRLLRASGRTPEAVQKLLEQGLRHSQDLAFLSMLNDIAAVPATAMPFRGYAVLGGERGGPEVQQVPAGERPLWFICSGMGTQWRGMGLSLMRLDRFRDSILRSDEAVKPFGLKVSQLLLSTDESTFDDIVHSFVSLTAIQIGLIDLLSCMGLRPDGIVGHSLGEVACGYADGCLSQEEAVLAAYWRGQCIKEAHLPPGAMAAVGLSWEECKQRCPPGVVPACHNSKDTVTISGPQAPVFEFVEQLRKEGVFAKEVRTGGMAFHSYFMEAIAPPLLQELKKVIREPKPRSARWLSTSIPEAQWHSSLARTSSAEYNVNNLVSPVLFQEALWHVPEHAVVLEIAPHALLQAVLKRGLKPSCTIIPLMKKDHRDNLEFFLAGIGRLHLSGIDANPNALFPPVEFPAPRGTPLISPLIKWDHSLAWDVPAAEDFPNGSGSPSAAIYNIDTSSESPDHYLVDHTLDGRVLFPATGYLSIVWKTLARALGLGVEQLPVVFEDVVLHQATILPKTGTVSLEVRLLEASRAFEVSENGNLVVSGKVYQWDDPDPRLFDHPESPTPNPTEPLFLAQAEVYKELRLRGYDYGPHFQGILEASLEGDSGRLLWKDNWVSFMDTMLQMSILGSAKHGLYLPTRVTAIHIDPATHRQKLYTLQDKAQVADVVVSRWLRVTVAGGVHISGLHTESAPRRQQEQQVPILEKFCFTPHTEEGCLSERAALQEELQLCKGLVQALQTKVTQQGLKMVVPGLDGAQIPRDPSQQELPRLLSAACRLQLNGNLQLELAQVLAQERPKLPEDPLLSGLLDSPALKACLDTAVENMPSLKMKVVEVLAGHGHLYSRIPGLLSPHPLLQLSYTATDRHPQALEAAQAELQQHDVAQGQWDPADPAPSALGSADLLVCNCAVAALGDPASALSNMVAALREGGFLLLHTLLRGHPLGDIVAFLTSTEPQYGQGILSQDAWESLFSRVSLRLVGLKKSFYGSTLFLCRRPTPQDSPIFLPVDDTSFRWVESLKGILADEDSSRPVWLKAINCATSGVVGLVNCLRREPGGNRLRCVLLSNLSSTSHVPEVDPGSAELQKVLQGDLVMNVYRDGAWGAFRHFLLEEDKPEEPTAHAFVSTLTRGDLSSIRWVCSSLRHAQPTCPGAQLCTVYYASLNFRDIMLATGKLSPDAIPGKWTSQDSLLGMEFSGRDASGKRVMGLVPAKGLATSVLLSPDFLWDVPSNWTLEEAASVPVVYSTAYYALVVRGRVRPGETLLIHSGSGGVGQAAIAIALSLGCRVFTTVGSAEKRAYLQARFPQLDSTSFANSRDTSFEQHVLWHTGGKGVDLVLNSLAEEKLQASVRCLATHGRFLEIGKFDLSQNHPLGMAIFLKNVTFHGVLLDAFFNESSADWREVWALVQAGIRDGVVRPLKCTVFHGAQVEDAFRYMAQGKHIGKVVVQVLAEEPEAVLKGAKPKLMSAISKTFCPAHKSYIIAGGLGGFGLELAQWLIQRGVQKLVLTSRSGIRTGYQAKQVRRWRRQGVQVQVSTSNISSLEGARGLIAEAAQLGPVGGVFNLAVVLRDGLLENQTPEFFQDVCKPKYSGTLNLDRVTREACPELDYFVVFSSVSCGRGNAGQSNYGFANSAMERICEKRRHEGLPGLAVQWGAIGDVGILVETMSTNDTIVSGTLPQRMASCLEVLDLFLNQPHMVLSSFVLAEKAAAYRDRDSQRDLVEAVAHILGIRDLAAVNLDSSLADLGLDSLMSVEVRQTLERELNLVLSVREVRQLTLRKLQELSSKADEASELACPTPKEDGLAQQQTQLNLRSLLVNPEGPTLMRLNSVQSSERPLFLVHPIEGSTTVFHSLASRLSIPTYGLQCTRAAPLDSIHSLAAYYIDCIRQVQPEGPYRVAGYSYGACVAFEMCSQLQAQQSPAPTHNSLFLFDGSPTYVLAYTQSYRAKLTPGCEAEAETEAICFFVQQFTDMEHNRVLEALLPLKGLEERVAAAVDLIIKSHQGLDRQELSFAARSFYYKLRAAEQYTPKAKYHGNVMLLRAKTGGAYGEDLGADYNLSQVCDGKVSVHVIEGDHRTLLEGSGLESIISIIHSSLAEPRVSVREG
# [9] = target: Glyceraldehyde-3-phosphate dehydrogenase (Homo sapiens, UniProt P04406)
# Sequence of Glyceraldehyde-3-phosphate dehydrogenase (P04406 whole entry): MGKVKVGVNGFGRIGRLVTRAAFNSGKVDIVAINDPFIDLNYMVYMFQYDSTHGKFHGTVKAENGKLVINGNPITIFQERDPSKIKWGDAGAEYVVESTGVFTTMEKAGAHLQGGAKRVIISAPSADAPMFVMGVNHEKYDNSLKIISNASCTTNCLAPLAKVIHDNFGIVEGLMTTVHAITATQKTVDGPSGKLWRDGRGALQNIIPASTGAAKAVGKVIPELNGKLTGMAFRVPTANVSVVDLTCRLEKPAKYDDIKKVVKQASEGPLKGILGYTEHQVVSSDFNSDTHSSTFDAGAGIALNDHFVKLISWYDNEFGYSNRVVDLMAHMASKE
# Bcl-2-related protein A1 [10] = target: T7, Bcl-2-related protein A1 (Mus musculus, UniProt Q07440); experiment: Bfl-1 inhibitors blocking BH3 peptide binding, confirmation, biochemical, TR-FRET, mouse Bfl-1 (AID 621);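 note: TR-FRET binding of GST-Bfl-1 to FITC-labelled Bid peptide via terbium antibody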
# T7 sequence (Q07440 whole entry): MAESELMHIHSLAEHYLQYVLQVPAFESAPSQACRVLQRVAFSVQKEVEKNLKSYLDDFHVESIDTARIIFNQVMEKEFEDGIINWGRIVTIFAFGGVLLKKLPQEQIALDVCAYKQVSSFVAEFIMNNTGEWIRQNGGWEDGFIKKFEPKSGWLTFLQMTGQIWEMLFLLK
# Bcl-2-related protein A1 [11] = target: T7, Bcl-2-related protein A1; experiment: Bfl-1 binding inhibitors, SAR follow-up, biochemical, fluorescence polarization (AID 1070)
structure (smiles),measurement,setting,value
COc1ccc2c(c1)-c1nc(/N=C/c3c(O)ccc4ccccc34)sc1CC2,IC50,[1],13 µM (active)
same,EC50,[2],> 260 µM (inactive)
same,AC50,[3],40.8 µM (active)
same,CC50,Vero,> 40 µM (active)
same,EC50,Protein RecA,> 380 µM (inconclusive)
same,IC50,Genome polyprotein,6.25 µM (active)
same,IC50,[4],22.2 µM (active)
CCOC(=O)N1CCN(S(=O)(=O)c2ccc(C(=O)N(CCN(C)C)c3nc4ccc(Cl)cc4s3)cc2)CC1,EC50,[5],< 0.1 µM (active)
same,EC50,[6],> 60 µM (not active)
same,EC50,cells,0.07 µM (active)
CNC(=O)N(c1ccccc1)c1ccccc1,IC50,[7],> 100 µM (not active)
Cc1cccc(N2CCN(C(=O)CNC(=O)c3cccc([N+](=O)[O-])c3)CC2)c1C,EC50,[8],0.38 µM (active)
same,IC50,Fatty acid synthase,1.51 µM (active)
Cc1ccsc1C(=O)C1CCCN(Cc2c(C)nn(C(C)C)c2C)C1 (configuration not stated),EC50,[5],< 0.1 µM (active)
same,EC50,[6],> 60 µM (not active)
same,EC50,cells,0.008 µM (active)
O=C1C(Cl)=C(N2CCCC2)C(=O)N1c1ccc(Cl)c(Cl)c1,IC50,[9],> 100 µM (not active)
same,IC50,Bcl-2-related protein A1 [10],> 100 µM (not active)
same,IC50,Bcl-2-related protein A1 [11],> 100 µM (not active)
FC(F)(F)c1cnc2c(c1)nc(S)n2-c1ccc(Cl)cc1,EC50,[8],4.84 µM (active)
Cc1ccc(-n2nnc(-c3cnc4ccccc4c3)n2)cc1,IC50,Bcl-2-related protein A1 [10],> 100 µM (not active)
same,IC50,Bcl-2-related protein A1 [11],> 100 µM (not active)
